These results are taken from patent US20110021531A1, “OXAZOLE DERIVATIVES USEFUL AS INHIBITORS OF FAAH” (priority 2009, published 2011).

SMILES strings stand for the structures.

In general, IC50 refers to the concentration needed to halve the response being measured. Low readings indicate higher potency, high ones lower potency.

The target of test [1] is T1, human FAAH (Fatty Acid Amide Hydrolase) (Homo sapiens, UniProt O00519).
T1 construct: The full length FAAH was subcloned into the mammalian expression vector, pcDEF.neo
T1 sequence (O00519 1-579): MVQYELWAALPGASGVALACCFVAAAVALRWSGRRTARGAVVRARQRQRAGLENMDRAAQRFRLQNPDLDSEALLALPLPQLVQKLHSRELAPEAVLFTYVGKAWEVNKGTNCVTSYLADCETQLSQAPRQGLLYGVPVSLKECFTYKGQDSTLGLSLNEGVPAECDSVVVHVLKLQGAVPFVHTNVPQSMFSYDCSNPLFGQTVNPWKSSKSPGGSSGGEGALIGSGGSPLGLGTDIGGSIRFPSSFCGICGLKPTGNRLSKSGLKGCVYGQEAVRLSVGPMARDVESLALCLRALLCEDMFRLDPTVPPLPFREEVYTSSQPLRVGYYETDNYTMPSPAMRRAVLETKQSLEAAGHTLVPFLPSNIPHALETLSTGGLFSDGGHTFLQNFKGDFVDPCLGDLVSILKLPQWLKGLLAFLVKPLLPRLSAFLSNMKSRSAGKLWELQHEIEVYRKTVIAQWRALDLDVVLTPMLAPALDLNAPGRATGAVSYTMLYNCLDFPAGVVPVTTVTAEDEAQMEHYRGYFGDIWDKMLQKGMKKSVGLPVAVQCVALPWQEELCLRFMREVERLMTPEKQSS
Description: FAAH whole cell assay, CHO cells expressing human FAAH. It is filed as cell-based. An excerpt: (§1) To assist in assay development stable cell lines for human, murine and rat full length FAAH were developed. Human FAAH cDNA (Accession No: NM_001441.1) was purchased from Origene (Rockville, Md.). The full length FAAH was subcloned into the mammalian expression vector, pcDEF.neo, using XbaI and EcoRI restriction sites and used for stable cell line generation.
(§2) Murine (accession number NM_010173) and Rat FAAH (accession number NM_024132) was amplified by reverse transcriptase polymerase chain reaction (RT-PCR) from brain cDNA (BD Biosciences, San Jose, Calif.) using primers 1 and 2 or primers 1 and 3 respectively (see Table). The resulting PCR product was ligated into pCR4 TOPO and DNA sequence confirmed. The full length murine FAAH was subcloned into the mammalian expression vector, pcDEFneo using either EcoRI (murine) or KpnI and EcoRI (rat) restriction sites. Chinese hamster ovary cells (CHO) were transfected following manufacturers protocol (AMAXA). Forty eight hours post transfection, cells were trypsinized and transferred to 96 well plates in Iscove's DMEM media supplemented with 2 mM Glutamine, 10% fetal calf serum, 1 mg/ml geneticin and HT Supplement (0.1 mM sodium hypoxanthine, 0.016 mM thymidine) in order to isolate single clones. Following selection in geneticin, individual clones were selected and FAAH activity was assessed using a whole cell fluorescent anandamide assay, modified from Ramarao et al (2005). Following removal of tissue culture media cells were dislodged following addition of Cellstripper (Mediatech, Inc. Manassas, Va.) and transferred to 96 well black clear bottom assay plate, centrifuged at 1,000 rpm for 3 mins and media removed and replaced with assay buffer (50 mM Iris pH8.0, 1 mM EDTA, 0.1% fatty acid free BSA). The reaction was initiated by addition of fluorescent substrate, AMC Arachidonoyl Amide (Cayman Chemical, Ann Arbor, Mich.) to 1 μM and reaction allowed to proceed for 2 hours at room temperature. Release of fluorescence was monitored in a CytoFluor Multiplate Reader. Cells expressing the highest amount of FAAH activity were selected for study with FAAH inhibitors.
(§3) (American Radiolabeled Chemicals; 1 mCi/ml) with FAAH (Life Sciences (1995), 56, 1999-2005 and Journal of Pharmacology and Experimented Therapeutics (1997), 283, 729-734), Analytical. Biochemistry (2003), 318, 270-5. In addition, routine assays were performed monitoring hydrolysis of arachidonyl-7-amino-4-methylcoumarin amide (AAMCA) by following increase in fluorescence upon release of 7-amino 4-methyl coumarin (λEX=355 nm, (λEM=460 nm). Analytical. Biochemistry (2005). 343, 143-51
(§4) Assays are performed on either cell lysate or microsome fractions prepared as described or in whole cell format employing either the fluorescent substrate AAMCA (Cayman chemical, Ann Arbor, Mich.,) or ^3H-anandmaide ([ETHANOLAMINE-1-3H]American Radiolabeled Chemicals; 1 mCi/ml). The cell lysate or microsome assay is performed in Costar black wall, clear bottom plates by adding FAAH_CF10 (whole cell, cell lysate or microsome) in assay buffer (50 mM Phosphate, pH 8.0, 1 mM EDTA, 200 mM KCl, 0.2% glycerol, 0.1% fatty acid free BSA) to each well, followed by either DMSO or compound and allowed to incubate at 22-25° C. for fifteen minutes. AAMCA substrate was used to achieve a final concentration of 1 μM and reaction allowed to proceed at room temperature for 1-3 hours. Fluorescent release as a measure of FAAH activity was monitored by reading the plate in a CytoFluor Multiplate Reader (Ex: […]). Whole cell assay is conducted with cells harvested after rinsing tissue culture flasks three times with Ca^++Mg^++ free PBS, incubating for 10 min in Enzyme free dissociation media and centrifuging for 5 minutes at 1,000 rpm in table top centrifuge. Cells are resuspended in assay buffer at desired cell number in (4×10^4 cells/assay in 96-well format; 1×10^4 cells/assay in 384-well format) and assayed as described.

The target in test [2] is T2, rat FAAH (Fatty Acid Amide Hydrolase) (Rattus norvegicus, UniProt P97612).
T2 sequence (P97612 1-579): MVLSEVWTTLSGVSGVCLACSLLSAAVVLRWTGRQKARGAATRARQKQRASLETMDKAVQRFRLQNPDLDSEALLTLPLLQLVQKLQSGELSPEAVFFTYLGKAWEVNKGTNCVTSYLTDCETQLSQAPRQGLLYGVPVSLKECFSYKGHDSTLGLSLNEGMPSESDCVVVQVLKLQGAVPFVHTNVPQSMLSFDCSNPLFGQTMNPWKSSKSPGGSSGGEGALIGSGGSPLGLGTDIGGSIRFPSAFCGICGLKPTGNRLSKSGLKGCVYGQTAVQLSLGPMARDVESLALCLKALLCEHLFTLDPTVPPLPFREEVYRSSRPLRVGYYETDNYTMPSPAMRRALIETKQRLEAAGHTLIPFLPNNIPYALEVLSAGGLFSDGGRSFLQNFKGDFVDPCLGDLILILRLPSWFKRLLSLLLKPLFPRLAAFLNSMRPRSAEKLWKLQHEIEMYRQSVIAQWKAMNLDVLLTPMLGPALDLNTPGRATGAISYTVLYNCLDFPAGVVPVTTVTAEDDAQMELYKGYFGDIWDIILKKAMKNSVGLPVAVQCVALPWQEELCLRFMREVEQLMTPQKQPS
Description: FAAH whole cell assay, CHO cells expressing rat FAAH. It is filed as cell-based.
Text: as §1, §2, §3, §4

Test [3] concerns the target T1, human FAAH (Fatty Acid Amide Hydrolase). The test can be described thus: FAAH enzyme assay on lysate of CHO cells expressing human FAAH. Type of test: biochemical.
Text: as §1
CHO cells expressing FAAH were used to prepare either crude cell lysate or microsome fractions. To harvest cells, tissue culture media was decanted, the monolayer washed three times with Ca^++Mg^++ free PBS and cells recovered after […] in enzyme free dissociation media (Millipore Corp, Billerica, Mass.). Cells were collected by centrifuging at 2000 rpm for 15 min. and the cell pellet re-suspended with 50 mM HEPES (pH 7.4) containing 1 mM EDTA and the protease inhibitors aprotinin (1 mg/ml) and leupeptin (100 μM). The suspension was sonicated at 4° C. and the cell lysate recovered after centrifuging at 12,000×g (14,600 rpm, SS34 rotor) for 20 min at 4° C. to form a crude pellet of cell debris, nuclei, peroxisomes, lysosomes, and mitochondria; the supernatant or cell lysate was used for FAAH enzyme assay. In some cases, microsomes fractions enriched in FAAH were prepared by centrifuging the cell lysate further at 27,000 rpm (100,000×g) in SW28 rotor for 50 minutes at 4° C. The pellet containing FAAH-enriched microsomes was re-suspend in 50 mM HEPES, (pH 7.4) 1 mM EDTA, and any remaining DNA sheared by passage of material through a 23 gauge needle and aliquots of enzyme were store at −80° C. prior to use.
as §3, §4
Alternatively, assays are performed using anandamide [ethanolamine 1-^3H] (specific activity of 10 Ci/mmol) diluted with cold anandamide to achieve a final assay concentration of 1 μM anandamide (˜50,000 cpm). Enzyme (CHO cell lysate, brain or liver homogenate) is incubated in assay buffer (50 mM Phosphate, pH 8.0, 1 mM EDTA, 200 mM KCl, 0.2% glycerol, 0.1% fatty acid free BSA) with inhibitor at 25° C. for 30 minutes. The reaction was terminated by addition of 2 volumes of chloroform:methanol (1:1) and mixed by vortexing. […]

For the compound `Cc1cc(F)ccc1-c1nc(-c2ccc(C(C)(C)O)nc2)c(Sc2ccc(Cl)cn2)o1` [Ex 37], the IC50 in test [1] worked out at 40 nM; in test [2], 15 nM; in test [3], 13 nM.

For `Fc1ccc(-c2nc(-c3ccc(-c4ncon4)cc3)c(Sc3ccc(Cl)cc3)o2)cc1` [Ex 48, 3-{4-[5-[(4-Chlorophenyl)thio]-2-(4-fluorophenyl)-1,3-oxazol-4-yl]phenyl}-1,2,4-oxadiazole], the IC50 is 77 nM in test [1], 8 nM in test [2] and 9 nM in test [3].

For the compound `COC(=O)c1cnc(-c2nc(-c3ccc(F)cc3)oc2Sc2ccc(Cl)cn2)nc1` [Ex 124, Methyl 2-{5-[(5-chloropyridin-2-yl)sulfanyl]-2-(4-fluorophenyl)-1,3-oxazol-4-yl}pyrimidine-5-carboxylate], the IC50 was 98 nM in test [1], 16 nM in test [2] and 11 nM in test [3].

For the compound `CS(=O)(=O)c1ccc(-c2nc(-c3ccc(F)cc3)oc2Sc2ccc(Cl)cn2)cc1` [Ex 78, 5-Chloro-2-({2-(4-fluorophenyl)-4-[4-(methylsulfonyl)phenyl]-1,3-oxazol-5-yl}sulfanyl)pyridine], the IC50 in test [1] turned out to be 69 nM; in test [2], 39 nM; in test [3], 28 nM.

For `CC(C)(O)c1ccc(-c2nc(-c3ccc(F)cc3)oc2Sc2ccc(Cl)cn2)nn1` [Ex 96, 2-(6-{5-[(5-Chloropyridin-2-yl)sulfanyl]-2-(4-fluorophenyl)-1,3-oxazol-4-yl}pyridazin-3-yl)propan-2-ol], the IC50 was 133 nM in test [1], 63 nM in test [2] and 17 nM in test [3].

In the case of `N#CC1(c2ccc(-c3nc(-c4ccc(F)cc4)oc3Sc3ccc(Cl)cn3)cn2)CC(O)C1` (stereo not drawn) [Ex 122, 1-(5-{5-[(5-Chloropyridin-2-yl)sulfanyl]-2-(4-fluorophenyl)-1,3-oxazol-4-yl}pyridin-2-yl)-3-hydroxycyclobutanecarbonitrile], the IC50 in test [1] is 474 nM; in test [2], 146 nM; in test [3], 161 nM.

As to `CC(C)(O)c1ccc(-c2nc(-c3ccc(F)cc3)oc2Sc2ccc(Cl)cc2)nc1` [Ex 46], the IC50 is 39 nM in test [1], 10 nM in test [2] and 17 nM in test [3].
